Assay results reported in ChEMBL document CHEMBL3120093 (J Med Chem, 2014).

Columns and labels:
[1] = AUC in rat at 5 mg/kg, po after 24 hrs; assay type: ADME, organism-based; set-up: time < 24 hr, dose 5 mg/kg, route oral; conditions: plasma
[2] = Plasma concentration in rat at 5 mg/kg, po after 4 hrs; assay type: ADME, organism-based; set-up: dose 5 mg/kg, route oral
[3] = Permeability of the compound at PH 7.4 by PAMPA; assay type: ADME; conditions: for Papp: read-out: permeability
[4] = Plasma concentration in dog at […], po after 24 hrs; assay type: ADME, organism-based, Canis lupus familiaris; set-up: dose 2.3 mg/kg, route oral
[5] = AUC in dog at […], po after 24 hrs; assay type: ADME, organism-based, Canis lupus familiaris; set-up: time < 24 hr, dose 2.3 mg/kg, route oral; conditions: plasma
[6] = Drug uptake in rat liver at 5 mg/kg, po after 4 hrs; assay type: ADME, organism-based; set-up: dose 5 mg/kg, route oral; conditions: read-out: Drug uptake
[7] = AUC in rat at 5 mg/kg, po after 4 hrs; assay type: ADME, organism-based; set-up: time < 4 hr, dose 5 mg/kg, route oral; conditions: plasma
[8] = Oral bioavailability in dog at […] after 24 hrs; assay type: ADME, organism-based, Canis lupus familiaris; conditions: in vivo
[9] = Drug uptake in rat liver at 5 mg/kg, po after 24 hrs; assay type: ADME, organism-based; set-up: dose 5 mg/kg, route oral; conditions: read-out: Drug uptake
[10] = Oral bioavailability in rat at 5 mg/kg after 24 hrs; assay type: ADME, organism-based; conditions: in vivo
[11] = Plasma concentration in rat at 5 mg/kg, po after 24 hrs; assay type: ADME, organism-based; set-up: dose 5 mg/kg, route oral
[12] = Plasma concentration in dog at 3.5 mg/kg, po after 24 hrs; assay type: ADME, organism-based, Canis lupus familiaris; set-up: dose 3.5 mg/kg, route oral
[13] = Oral bioavailability in dog at 3.5 mg/kg after 24 hrs; assay type: ADME, organism-based, Canis lupus familiaris; conditions: in vivo
[14] = AUC in dog at 3.5 mg/kg, po after 24 hrs; assay type: ADME, organism-based, Canis lupus familiaris; set-up: time < 24 hr, dose 3.5 mg/kg, route oral; conditions: plasma
[15] = Clearance in rat at 2 mg/kg, iv after 24 hrs; assay type: ADME, organism-based; set-up: dose 2 mg/kg, route intravenous; conditions: in vivo
[16] = Clearance in mouse at 5 mg/kg, iv after 24 hrs; assay type: ADME, organism-based; set-up: dose 5 mg/kg, route intravenous; conditions: in vivo
[17] = AUC in dog at 3 mg/kg, po after 24 hrs; assay type: ADME, organism-based, Canis lupus familiaris; set-up: time < 24 hr, dose 3 mg/kg, route oral; conditions: plasma
[18] = AUC in mouse at 20 mg/kg, po after 24 hrs; assay type: ADME, organism-based; set-up: time < 24 hr, dose 20 mg/kg, route oral; conditions: plasma
[19] = Volume of distribution in rat at 2 mg/kg, iv after 24 hrs; assay type: ADME, organism-based; set-up: dose 2 mg/kg, route intravenous; conditions: in vivo
[20] = Volume of distribution in dog at 1 mg/kg, iv after 24 hrs; assay type: ADME, organism-based, Canis lupus familiaris; set-up: dose 1 mg/kg, route intravenous; conditions: in vivo
[21] = Plasma concentration in mouse at 20 mg/kg, po after 24 hrs; assay type: ADME, organism-based; set-up: dose 20 mg/kg, route oral
[22] = Half life in mouse at 5 mg/kg, iv after 24 hrs; assay type: ADME, organism-based; set-up: dose 5 mg/kg, route intravenous; conditions: in vivo
[23] = Half life in rat at 2 mg/kg, iv after 24 hrs; assay type: ADME, organism-based; set-up: dose 2 mg/kg, route intravenous; conditions: in vivo
[24] = Volume of distribution in mouse at 5 mg/kg, iv after 24 hrs; assay type: ADME, organism-based; set-up: dose 5 mg/kg, route intravenous; conditions: in vivo
[25] = Oral bioavailability in mouse at 20 mg/kg after 24 hrs; assay type: ADME, organism-based; conditions: plasma
[26] = Oral bioavailability in dog at 3 mg/kg after 24 hrs; assay type: ADME, organism-based, Canis lupus familiaris; conditions: plasma
[27] = Plasma concentration in dog at 3 mg/kg, po after 24 hrs; assay type: ADME, organism-based, Canis lupus familiaris; set-up: dose 3 mg/kg, route oral
[28] = Drug uptake in mouse liver at 20 mg/kg, po after 24 hrs; assay type: ADME, organism-based; set-up: dose 20 mg/kg, route oral; conditions: read-out: Drug uptake
[29] = Clearance in rat at 2 mg/kg, iv after 4 hrs; assay type: ADME, organism-based; set-up: dose 2 mg/kg, route intravenous; conditions: in vivo

Compound	concentration at 4 h [2] [nM]	Papp [3] [×10⁻⁶ cm/s]	concentration at 4 h [6] [nM]	AUC at 4 h [7] [µM·h]	other results
COC(=O)N[C@H](C(=O)N1CCC[C@H]1c1nc(-c2ccc(-c3ccc(-c4c[nH]c([C@@H]5CCCN5C(=O)[C@@H](NC(=O)OC)C(C)C)n4)cc3)cc2)c[nH]1)C(C)C	661	49.6	2240	2.18	AUC at 24 h [1]: 4.8 µM·h; concentration at 24 h [4]: 26 nM; AUC at 24 h [5]: 11 µM·h; bioavailability at 24 h [8]: 108%; concentration at 24 h [9]: 103 nM; bioavailability [10]: 50%; concentration at 24 h [11]: 18 nM
COC(=O)N[C@H](C(=O)N1CCC[C@H]1c1ncc(-c2ccc(-c3ccc(-c4cnc([C@@H]5CCCN5C(=O)[C@@H](NC(=O)OC)C5CC5)[nH]4)cc3)cc2)[nH]1)C1CC1		50			
CCN(CC)[C@@H](C(=O)N1CCC[C@H]1c1ncc(-c2ccc(-c3ccc(-c4cnc([C@@H]5CCCN5C(=O)[C@H](C)NC(=O)OC)[nH]4)cc3)cc2)[nH]1)c1ccccc1	30	25.3	1830	0.049	AUC at 24 h [1]: 0.165 µM·h; concentration at 24 h [12]: 9 nM; concentration at 24 h [9]: 178 nM; bioavailability [13]: 66%; bioavailability [10]: 3.6%; AUC at 24 h [14]: 1.2 µM·h
CC[C@H](NC(=O)OC)C(=O)N1CCC[C@H]1c1ncc(-c2ccc(-c3ccc(-c4cnc([C@@H]5CCCN5C(=O)[C@@H](c5ccccc5)N(CC)CC)[nH]4)cc3)cc2)[nH]1		36.3	471		concentration at 24 h [9]: 132 nM; bioavailability [10]: 4.3%
CCN(CC)[C@@H](C(=O)N1CCC[C@H]1c1ncc(-c2ccc(-c3ccc(-c4cnc([C@@H]5CCCN5C(=O)[C@@H](NC(=O)OC)C(C)C)[nH]4)cc3)cc2)[nH]1)c1ccccc1	13	70.6	1230	0.034	
O=C([C@@H](c1ccccc1)N1CCCC1)N1CCC[C@H]1c1ncc(-c2ccc(-c3ccc(-c4cnc([C@@H]5CCCN5C(=O)[C@@H](c5ccccc5)N5CCCC5)[nH]4)cc3)cc2)[nH]1	0.7	3.6	80	0.005	
CCN(CC)[C@@H](C(=O)N1CCC[C@H]1c1ncc(-c2ccc(-c3ccc(-c4cnc([C@@H]5CCCN5C(=O)[C@@H](c5ccccc5)N5CCCCC5)[nH]4)cc3)cc2)[nH]1)c1ccccc1		33.7			
COC(=O)N[C@@H](C(=O)N1CCC[C@H]1c1ncc(-c2ccc(-c3ccc(-c4cnc([C@@H]5CCCN5C(=O)CNC(C)=O)[nH]4)cc3)cc2)[nH]1)c1ccccc1		1.2			
COC(=O)N[C@@H](C(=O)N1CCC[C@H]1c1ncc(-c2ccc(-c3ccc(-c4cnc([C@@H]5CCCN5C(=O)[C@@H](C)NC(C)=O)[nH]4)cc3)cc2)[nH]1)c1ccccc1		2.8			
COC(=O)N[C@@H](C(=O)N1CCC[C@H]1c1ncc(-c2ccc(-c3ccc(-c4cnc([C@@H]5CCCN5C(=O)[C@H](C)NC(C)=O)[nH]4)cc3)cc2)[nH]1)c1ccccc1		10			
COC(=O)N[C@@H](C)C(=O)N1CCC[C@H]1c1ncc(-c2ccc(-c3ccc(-c4cnc([C@@H]5CCCN5C(=O)[C@H](C)NC(=O)OC)[nH]4)cc3)cc2)[nH]1	57	20.7	134	0.281	
COC(=O)N[C@H](C)C(=O)N1CCC[C@H]1c1ncc(-c2ccc(-c3ccc(-c4cnc([C@@H]5CCCN5C(=O)[C@@H](C)NC(=O)OC)[nH]4)cc3)cc2)[nH]1		4.7			
CCOC(=O)N[C@@H](C)C(=O)N1CCC[C@H]1c1ncc(-c2ccc(-c3ccc(-c4cnc([C@@H]5CCCN5C(=O)[C@H](C)NC(=O)OCC)[nH]4)cc3)cc2)[nH]1		45.1			
COC(=O)NC(C)(C)C(=O)N1CCC[C@H]1c1ncc(-c2ccc(-c3ccc(-c4cnc([C@@H]5CCCN5C(=O)C(C)(C)NC(=O)OC)[nH]4)cc3)cc2)[nH]1		2.6			
CN(C)[C@@H](C(=O)N1CCC[C@H]1c1ncc(-c2ccc(-c3ccc(-c4cnc([C@@H]5CCCN5C(=O)[C@H]5CCCO5)[nH]4)cc3)cc2)[nH]1)c1ccccc1		15.8			clearance [15]: 57 mL/min/kg; clearance [16]: 18 mL/min/kg; AUC at 24 h [17]: 0.436 µM·h; AUC at 24 h [18]: 1.42 µM·h; Vd [19]: 60 L/kg; Vd [20]: 82 L/kg; concentration at 24 h [21]: 25 nM; half-life [22]: 7.8 h; half-life [23]: 14 h; Vd [24]: 14 L/kg; bioavailability [25]: 6%; bioavailability [26]: 60%; concentration at 24 h [27]: 30 nM; concentration at 24 h [28]: 539 nM
CCN(CC)[C@@H](C(=O)N1CCC[C@H]1c1ncc(-c2ccc(-c3ccc(-c4cnc([C@@H]5CCCN5C(=O)[C@@H](c5ccccc5)N(CC)CC)[nH]4)cc3)cc2)[nH]1)c1ccccc1	6	25.5	1090	0.013	clearance [29]: 4 mL/min/kg
COC(=O)N[C@@H](C(=O)N1CCC[C@H]1c1ncc(-c2ccc(-c3ncc(-c4cnc([C@@H]5CCCN5C(=O)[C@H](NC(=O)OC)c5ccccc5)[nH]4)cn3)cc2)[nH]1)c1ccccc1		18.6			clearance [15]: 36 mL/min/kg; AUC at 24 h [1]: 0.021 µM·h; Vd [19]: 1.7 L/kg; half-life [23]: 1.7 h; bioavailability [10]: 0.5%
O=C(C(c1ccccc1)N1CC[C@H](F)C1)N1CCC[C@H]1c1ncc(-c2ccc(-c3ccc(-c4cnc([C@@H]5CCCN5C(=O)C(c5ccccc5)N5CC[C@H](F)C5)[nH]4)cc3)cc2)[nH]1 (stereo in doubt; 21)					permeability [3]: impermeable

Further lines, with some results ahead:

concentration at 4 h [2] [nM]	Papp [3] [×10⁻⁶ cm/s]	concentration at 4 h [6] [nM]	AUC at 4 h [7] [µM·h]	Compound	other results
	38.4			CC[C@H](NC(=O)OC)C(=O)N1CCC[C@H]1c1ncc(-c2ccc(-c3ccc(-c4cnc([C@@H]5CCCN5C(=O)[C@H](CC)NC(=O)OC)[nH]4)cc3)cc2)[nH]1	
121	27.5	453	0.472	COC(=O)N[C@H](C(=O)N1CCC[C@H]1c1ncc(-c2ccc(-c3ccc(-c4cnc([C@@H]5CCCN5C(=O)[C@@H](NC(=O)OC)[C@@H](C)OC)[nH]4)cc3)cc2)[nH]1)[C@@H](C)OC	
11	34.9	239	0.054	O=C([C@@H](c1ccccc1)N1CCOCC1)N1CCC[C@H]1c1ncc(-c2ccc(-c3ccc(-c4cnc([C@@H]5CCCN5C(=O)[C@@H](c5ccccc5)N5CCOCC5)[nH]4)cc3)cc2)[nH]1	
	36.3			COC(=O)N[C@@H](C)C(=O)N1CCC[C@H]1c1ncc(-c2ccc(-c3ccc(-c4cnc([C@@H]5CCCN5C(=O)[C@H](NC(=O)OC)c5ccccc5)[nH]4)cc3)cc2)[nH]1	
	0.2			COC(=O)NC1(C(=O)N2CCC[C@H]2c2ncc(-c3ccc(-c4ccc(-c5cnc([C@@H]6CCCN6C(=O)C6(NC(=O)OC)CC6)[nH]5)cc4)cc3)[nH]2)CC1	
	16.4	26.2		COC(=O)NCC(=O)N1CCC[C@H]1c1ncc(-c2ccc(-c3ccc(-c4cnc([C@@H]5CCCN5C(=O)[C@H](NC(=O)OC)c5ccccc5)[nH]4)cc3)cc2)[nH]1	
	50			COC(=O)N[C@@H](C(=O)N1CCC[C@H]1c1ncc(-c2ccc(-c3ccc(-c4cnc([C@@H]5CCCN5C(C)=O)[nH]4)cc3)cc2)[nH]1)c1ccccc1	
27	48	802	0.127	COC(=O)N[C@@H](C(=O)N1CCC[C@H]1c1ncc(-c2ccc(-c3ccc(-c4cnc([C@@H]5CCCN5C(=O)[C@@H]5CCCO5)[nH]4)cc3)cc2)[nH]1)c1ccccc1	
27	20	563	0.062	CN(C)[C@@H](C(=O)N1CCC[C@H]1c1ncc(-c2ccc(-c3ccc(-c4cnc([C@@H]5CCCN5C(=O)[C@@H]5CCCO5)[nH]4)cc3)cc2)[nH]1)c1ccccc1	
2	10.6	1980	0.006	CCN(C)[C@@H](C(=O)N1CCC[C@H]1c1ncc(-c2ccc(-c3ccc(-c4cnc([C@@H]5CCCN5C(=O)[C@@H](c5ccccc5)N(C)CC)[nH]4)cc3)cc2)[nH]1)c1ccccc1	clearance [29]: 88 mL/min/kg
	17.7			COC(=O)N[C@@H](C(=O)N1CCC[C@H]1c1ncc(-c2ccc(-c3ccc(-c4cnc([C@@H]5CCCN5C(=O)[C@H](NC(=O)OC)c5ccccc5)[nH]4)cn3)cc2)[nH]1)c1ccccc1	
	17.9			COC(=O)N[C@@H](C(=O)N1CCC[C@H]1c1ncc(-c2ccc(-c3ccc(-c4cnc([C@@H]5CCCN5C(=O)[C@H](NC(=O)OC)c5ccccc5)[nH]4)nc3)cc2)[nH]1)c1ccccc1	
